In US20130122541A1, “MICROORGANISM PRODUCTION OF HIGH-VALUE CHEMICAL PRODUCTS, AND RELATED COMPOSITIONS, METHODS AND SYSTEMS” (The Regents of the University of Colorado, priority 2010, published 2013):
≈ marks a conversion by molar mass, not a printed value. Read-outs that look alike come from different tables or passages of the source.

Legend:
[1] = Reactive extraction of 3-HP from clarified fermentation broth into tertiary amine non-polar phase with co-solvents; type: physicochemical; settings: for 3-HP concentration raffinate: start 96.85 g/L 3-HP, single pass
Description: Calcium chloride at 1 M was added as a flocculent to reach a final concentration of about 8.2 g/L. Thereafter the pH was adjusted to a pH of approximately 2.0 using sulfuric acid. Thereafter a volume of this modified fermentation broth was centrifuged at approximately 3,200 g for 5 minutes to yield a clarified broth and a pellet, which was discarded.
Portions of the clarified broth were then subjected to reactive extraction by mixing with a tertiary amine non-polar phase comprising various co-solvents. […] Amines included Alamine 336, described above, and tripentylamine.

[2] = tested on: Yeast strains (S288C background); experiment: microbe, parasite or virus in culture; type: cell-based, Saccharomyces cerevisiae; settings: for MIC: Saccharomyces cerevisiae
Description: The minimum inhibitory concentration (MIC) was determined anaerobically in a 96 well-plate format. […] A 1% (v/v) inoculum was introduced into a 5 ml culture of SD minimal media without vitamins. After the cells reached mid-exponential phase, the culture was diluted to an OD600 of 0.200. The cells were further diluted 1:5 and a 10 μL aliquot was used to inoculate each well of a 96 well plate (˜10^4 cells per well) to total volume of 100 uL. […] Plates were incubated for 72 hours at 30 C. […] Plates were sealed in biobag anaerobic chambers that contained gas generators for anaerobic conditions and incubated for 72 hours at 30 C.

[3] = sample 1: Alamine 336 with Butanol
[4] = sample 2: Tripentylamine with Butanol
[5] = sample 3: Tripentylamine with p-Xylene
[6] = sample 4: Tripentylamine with Methyl ethyl ketone
[7] = sample 5: Tripentylamine with Methyl tert-butyl ether
[8] = sample 1: Alamine 336 with Butanol, 3-HP mass start 0.97 G
[9] = sample 2: Tripentylamine with Butanol, 3-HP mass start 1.94 G
[10] = sample 3: Tripentylamine with p-Xylene, 3-HP mass start 1.94 G
[11] = sample 4: Tripentylamine with Methyl ethyl ketone, 3-HP mass start 1.94 G
[12] = sample 5: Tripentylamine with Methyl tert-butyl ether, 3-HP mass start 1.94 G

With `O=C(O)CCO` [3-HP, 3-hydroxypropionic acid] the “Total 3HP extracted” value [1, 3] was 0.59 G, the “Total 3HP extracted” value [1, 4] was 1.13 G and the “Total 3HP extracted” value [1, 5] was 0.46 G. For the same molecule, the “Total 3HP extracted” value [1, 6] was 1.31 G, the “Total 3HP extracted” value [1, 7] was 0.73 G and the % 3-HP extracted [1, 3] was 61%. It also gave a % 3-HP raffinate [1, 3] of 39%, a 3-HP concentration raffinate ([1]; sample 1: Alamine 336 with Butanol co-solvent) of 53.94 g/L and a 3-HP mass extractant [1, 8] of 0.59 G. The 3-HP mass raffinate [1, 8] was 0.38 G, the % 3-HP extracted [1, 4] was 58% and the % 3-HP raffinate [1, 4] was 42%. It also gave a 3-HP concentration raffinate ([1]; sample 2: Tripentylamine with Butanol co-solvent) of 54.17 g/L, a 3-HP mass extractant [1, 9] of 1.13 G and a 3-HP mass raffinate [1, 9] of 0.81 G. It also gave a % 3-HP extracted [1, 5] of 24%, a % 3-HP raffinate [1, 5] of 76% and a 3-HP concentration raffinate ([1]; sample 3: Tripentylamine with p-Xylene co-solvent) of 78.69 g/L. The 3-HP mass extractant [1, 10] was 0.46 G, the 3-HP mass raffinate [1, 10] was 1.47 G and the % 3-HP extracted [1, 6] was 67%. It also gave a % 3-HP raffinate [1, 6] of 33%, a 3-HP concentration raffinate ([1]; sample 4: Tripentylamine with Methyl ethyl ketone co-solvent) of 52.75 g/L and a 3-HP mass extractant [1, 11] of 1.31 G. The 3-HP mass raffinate [1, 11] was 0.63 G, the % 3-HP extracted [1, 7] was 38% and the % 3-HP raffinate [1, 7] was 62%. It also gave a 3-HP concentration raffinate ([1]; sample 5: Tripentylamine with Methyl tert-butyl ether co-solvent) of 67.64 g/L, a 3-HP mass extractant [1, 12] of 0.73 G and a 3-HP mass raffinate [1, 12] of 1.21 G. For the same molecule, the “% Increase Over Control” value ([2]; S288C, SD media, supplements none (control), anaerobic) was 0%, the MIC ([2]; read-out: Average MIC Assay Result (g/L 3-HP), S288C, SD media, supplements none (control), anaerobic) was 38 g/L (≈ 422 mM) and the MIC ([2]; read-out: MIC Assay Result (g/L 3-HP), strain YX-022 (BY4722, pyes2.1-Aro3 pRS425-ILV6), SD, anaerobic) was 50 g/L (≈ 555 mM). For the same molecule, the MIC ([2]; read-out: MIC Assay Result (g/L 3-HP), strain YX-CJR-001 (BY4709, pRS426 EV, control), SD, anaerobic) was 40 g/L (≈ 444 mM), the MIC ([2]; read-out: MIC Assay Result (g/L 3-HP), strain YX-CJR-005 (BY4709, pYes2.1-Met6), SD, anaerobic) was 60 g/L (≈ 666 mM) and the MIC ([2]; read-out: MIC Assay Result (g/L 3-HP), strain YX-CJR-007 (BY4709, pyes2.1-ILV6), SD, anaerobic) was 50 g/L (≈ 555 mM). The MIC ([2]; read-out: MIC Assay Result (g/L 3-HP), strain YX-CJR-008 (BY4709, pyes2.1-ILV1), SD, anaerobic) was 60 g/L (≈ 666 mM), the MIC ([2]; read-out: MIC Assay Result (g/L 3-HP), strain YX-CJR-010 (BY4709, pyes2.1-Thr1), SD, anaerobic) was 50 g/L (≈ 555 mM) and the MIC ([2]; read-out: MIC Assay Result (g/L 3-HP), strain YX-CJR-011 (BY4709, pyes2.1-Ser2), SD, anaerobic) was 50 g/L (≈ 555 mM). It also gave an MIC ([2]; read-out: MIC Assay Result (g/L 3-HP), strain YX-CJR-013 (BY4709, pyes2.1-ser3), SD, anaerobic) of 50 g/L (≈ 555 mM), an MIC ([2]; read-out: MIC Assay Result (g/L 3-HP), strain YX-CJR-014 (BY4709, pyes2.1-arg2), SD, anaerobic) of 50 g/L (≈ 555 mM) and an MIC ([2]; read-out: MIC Assay Result (g/L 3-HP), strain YX-CJR-015 (BY4709, pyes2.1-RNR1), SD, anaerobic) of 50 g/L (≈ 555 mM). The MIC ([2]; read-out: MIC Assay Result (g/L 3-HP), strain YX-CJR-016 (BY4709, pyes2.1-Aro3), SD, anaerobic) was 50 g/L (≈ 555 mM), the MIC ([2]; read-out: MIC Assay Result (g/L 3-HP), strain YX-CJR-018 (BY4709, pyes2.1-Tyr1), SD, anaerobic) was 50 g/L (≈ 555 mM) and the MIC ([2]; read-out: MIC Assay Result (g/L 3-HP), strain YX-CJR-021 (BY4709, pYes2.1-Trp1), SD, anaerobic) was 50 g/L (≈ 555 mM). The “% Increase Over Control” value ([2]; strain YX-022 (pyes2.1-Aro3 pRS425-ILV6) vs control, anaerobic) was 25%, the “% Increase Over Control” value ([2]; strain YX-CJR-005 (pYes2.1-Met6) vs YX-CJR-001, anaerobic) was 50% and the “% Increase Over Control” value ([2]; strain YX-CJR-007 (pyes2.1-ILV6) vs YX-CJR-001, anaerobic) was 25%. The “% Increase Over Control” value ([2]; strain YX-CJR-008 (pyes2.1-ILV1) vs YX-CJR-001, anaerobic) was 50%, the “% Increase Over Control” value ([2]; strain YX-CJR-010 (pyes2.1-Thr1) vs YX-CJR-001, anaerobic) was 25% and the “% Increase Over Control” value ([2]; strain YX-CJR-011 (pyes2.1-Ser2) vs YX-CJR-001, anaerobic) was 25%. For the same molecule, the “% Increase Over Control” value ([2]; strain YX-CJR-013 (pyes2.1-ser3) vs YX-CJR-001, anaerobic) was 25%, the “% Increase Over Control” value ([2]; strain YX-CJR-014 (pyes2.1-arg2) vs YX-CJR-001, anaerobic) was 25% and the “% Increase Over Control” value ([2]; strain YX-CJR-015 (pyes2.1-RNR1) vs YX-CJR-001, anaerobic) was 25%.
